Test results from US12378508B2, “Organ-on-chips that mimic human pregnancy and parturition” (The Texas A&M University System, priority 2020, dated 2025).

Legend:
[1] = tested on: amnion epithelial cells (AECs); experiment: Cell migration through type IV collagen-filled microchannels of AM-OOC (bright field microscopy); format: cell-based, human; settings: coculture, OS (CSE) cotreatment in both chambers
Source text: Before using the AM-OOC, devices were washed 3 times with PBS and coated with Matrigel as previously described. The next day, devices were washed 3 times with complete DMEM-F12 medium before cell seeding. Primary cells were then trypsinized and stained with live cell dyes for green fluorescent protein (GFP) (for AEC; CellLight Histone 2B-GFP) or red fluorescent protein (RFP) (for AMC; CellLight Histone 2B-RFP) following the protocol provided by the company (10594 and 10595; Thermo Fisher Scientific, Waltham, MA, USA). Then, 120,000 AECs were loaded into the outer chamber, and 40,000 AMCs were loaded into the inner chamber of the AM-OOC. The AM-OOCs were incubated at 37° C. with 5% CO2 for 24 h before localized treatment (see next section).
To test the effect of OS on cellular transition in the amnion membrane, each AM-OOC was treated with one of the following for 48 h: 1) normal cell culture conditions (control DMEM-F12 medium); 2) OS conditions [induced by treating cells with cigarette smoke extract (CSE)] diluted 1:25 in AEC medium or diluted 1:75 in AMC medium; and 3) to verify the effect of OS, cells were cotreated with an OS inducer (CSE) and an antioxidant or stress signaler p38 MAPK inhibitor [N-acetyl-L-cysteine (NAC, 15 mM, A7250; MilliporeSigma] (23, 29) and SB203580 ([…], S8307; MilliporeSigma) (23, 29), a p38 MAPK inhibitor and a known inducer of EMT. […]

[2] = tested on: maternal decidua (DECI) chamber; experiment: LPS induced inflammation propagation in FMI-OOC, cytokines in cell supernatant; format: cell-based
Procedure: (§1) FIG. 12A illustrates after lipopolysaccharide (LPS) treatment in the AEC chamber for 24, 48, or 72 hours, cell supernatants were collected from each cell chamber within the FMI-OOC to document LPS induced inflammation propagation. LPS induced an increase in AEC IL-8 production at 24 and 48 hours, which reached the maternal decidua chamber by 72 hours, causing an increase in IL-8. Documenting LPS induced fetal inflammation can reach the maternal compartment in 72 hours within an FMI-OOC device.
(§2) FIG. 12B illustrates after LPS treatment in the maternal decidua (DECI) chamber for 24, 48, or 72 hours, cell supernatants were collected from each cell chamber within the FMI-OOC to document LPS induced inflammation propagation. LPS induced an increase in DECI IL-6 production at 24, which reached the fetal AEC chamber by 24 hours, causing a rise in IL-8 that increased over 72 hours. Documenting LPS induced maternal inflammation can reach the fetal compartment in 72 hours within an FMI-OOC device.
(§3) The device described here expands the previously described two-chamber coculture model into a four-chamber coculture model to include both fetal and maternal cell components. The fetal membrane-decidua interface model (FMI-OOC) composed of four coculture compartments interconnected through arrays of microfluidic channels (FIG. 10 and FIG. 11). Here, three cell types from the fetal side (AEC, AMC, chorion mesenchymal cells (CMC)/chorion trophoblast (CT)) and one from the maternal side (decidua cells) were used, establishing the first OOC model that contains both fetal and maternal cells. Cell loading concentration into each chamber mimicked those of in utero cell ratios of the fetal membrane tissue. The microfluidic channel array prevents cells from flowing into the neighboring compartments during initial cell loading, allow localized drug treatment of each cell layer, and allow taking supernatant from each layer independently for local biochemical analysis. At the same time, these channels allow biochemicals to diffuse between the layers, and also permit cell migration and transition.

AEC chamber = experiment: as above; format: cell-based
Procedure: as §1, §2, §3

Molecule	effect on OS cotreatment-induced AEC transition, blocked migration and increased inflammation [1]	IL-8 in maternal decidua chamber ([2]; LPS treatment in the AEC chamber, by 72 hours)	DECI IL-6 production ([2]; LPS treatment in the maternal decidua (DECI) chamber, at 24)	AEC IL-8 production (AEC chamber; LPS treatment in the AEC chamber, at 24 and 48 hours)	IL-8 in fetal AEC chamber (AEC chamber; LPS treatment in the maternal decidua (DECI) chamber, from 24 hours, increased over 72 hours)
CC(=O)N[C@@H](CS)C(=O)O [NAC, N-acetyl-L-cysteine]	prevented				
lipopolysaccharide [LPS]		increase	increase	increase	rise
